Reference: PMC2359919, “Molecular targeting of retinoic acid metabolism in neuroblastoma: the role of the CYP26 inhibitor R116010 in vitro and in vivo” (British Journal of Cancer, 2007)

Key:
[1] = test system: neuroblastoma cell lines; design: method as in Villablanca et al, 1995; conditions: ref Villablanca et al, 1995; cited from earlier work
[2] = test system: SH-SY5Y, NGP, SH-EP and GIMEN cells; design: method as in Armstrong et al, 2005b; conditions: SH-SY5Y neuroblastoma cells; ref Armstrong et al, 2005b; cited from earlier work
[3] = test system: CYP26A1; experiment: CYP26A1 expression in SH-SY5Y xenograft tumours; format: in vivo, CD-1 nude mice
Procedure: All in vivo experiments were approved by the relevant institutional animal welfare committees, and performed according to national law. Female athymic nude mice (CD-1 nu/nu, Charles River) used for antitumour studies were maintained and handled in isolators, under specific pathogen-free conditions, at 24°C with a 12 h light, 12 h dark cycle. Tumours were generated by implantation of SH-SY5Y cells subcutaneously (s.c.) into one flank of CD-1 nude mice (1 × 10^7 cells per animal).
Treatments began when the tumours were between 7 and 10 mm in length and breadth. Retinoids and R116010 were initially dissolved in DMSO before 10- or 20-fold dilutions in PBS, respectively. For pharmacokinetic studies, the animals were dosed with ATRA or 13cisRA (each 100 mg kg^−1) orally for 0.5, 2 and 6 h. […]
(§1) RNA was reverse-transcribed using Promega's Reverse Transcription System according to the manufacturer's instructions, using random hexamer primers. […] As internal standard, β-actin was measured simultaneously using the endogenous control assay provided by Applied Biosystems. […] Standard curves were generated from serial dilutions of cDNA prepared from cells treated with ATRA (1 μM) and the data were analysed using the GeneAmp Sequence Detection System software. CYP26C1 expression was analysed as described previously ([Taimi et al, 2004]).

[4] = test system: MYCN; experiment: MYCN mRNA expression in MYCN-amplified NGP cells, real-time PCR; format: cell-based, human
Procedure: (§2) SH-SY5Y, SH-EP (N- and S-type cells respectively derived from the parental line SK-N-SH), LAN6, IMR-32, NGP and GIMEN neuroblastoma cell lines were cultured routinely in RPMI 1640 medium containing fetal calf serum (10%) and L-glutamine (2 mM). Cells were grown at 37°C in a humidified incubator containing 5% CO2.
(§3) 13-cis-Retinoic acid and ATRA were dissolved in DMSO and diluted in cell culture medium to obtain final concentrations of 0.1–10 μM. The final concentration of DMSO in all cases was <0.2%. All experiments were performed in dim light and tubes containing retinoids were wrapped in aluminium foil.
as §1, with “primers. Real-time PCR was performed on 20 ng cDNA using TaqMan gene expression products for human CYP26A1, CYP26B1, CRABPII, RARβ and MYCN in combination with the TaqMan Universal PCR master mix (Applied Biosystems, Warrington, UK).” for “primers.”

[5] = test system: CRABP II; experiment: CRABP II mRNA expression in SH-SY5Y cells, real-time PCR; format: cell-based, human; conditions: ATRA 0.01 μM or 13cisRA 0.1 μM with R116010 1 μM vs retinoid alone, 24 h
Procedure: as §2, §3
as §1, with “primers. Real-time PCR was performed on 20 ng cDNA using TaqMan gene expression products for human CYP26A1, CYP26B1, CRABPII, RARβ and MYCN in combination with the TaqMan Universal PCR master mix (Applied Biosystems, Warrington, UK).” for “primers.”

| Compound | Concentration effective against neuroblastoma cell lines in vitro [1] [µM] | Inhibition of ATRA metabolism [2] | Increase in CYP26A1 expression in tumours ([3]; 13cisRA with two doses of R116010 at 2.5 mg kg^−1 vs 13cisRA alone, individual animals, data not shown) | Effect on CYP26A1 expression in tumours ([3]; R116010 prior ATRA) | Effect on downregulation of MYCN expression by ATRA or 13cisRA ([4]; ATRA or 13cisRA 0.1 μM with R116010 1 μM vs retinoid alone) | Effect on MYCN expression, R116010 alone ([4]; R116010 alone (1 μM)) | Effect on CRABP II expression, co-incubation with retinoid [5] |
| --- | --- | --- | --- | --- | --- | --- | --- |
| CC1=C(/C=C/C(C)=C/C=C/C(C)=C\C(=O)O)C(C)(C)CCC1 [13cisRA, 13-cis-retinoic acid] | 5 |  |  |  |  |  |  |
| C[C@@H]([C@H](c1ccc(Nc2nc3ccccc3s2)cc1)n1ccnc1)N(C)C [R116010] |  | inhibits ATRA metabolism | 4- to 20 fold | not significantly different | enhanced | small but significant increase | significant increases |
